# Experimental data as given in US7851637B2, “Compounds and methods for inhibiting the interaction of BCL proteins with binding partners” (Infinity Pharmaceuticals, Inc., priority 2004, dated 2010).
# Assays:
# [1] = molecular target: Bcl-2 (Homo sapiens, UniProt P10415); assay: Bcl-2 binding affinity analysis (fluorescence polarization binding assay)
# In short: (§1)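 In vitro measurement of compound binding to each protein by fluorescence polarization, described as sensitive and quantitative.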
# [2] = molecular target: Bcl-xL (Homo sapiens, UniProt Q07817); assay: Bcl-xL binding affinity analysis (fluorescence polarization binding assay); parameters: scale not given here
# Sequence of Bcl-xL (Q07817 whole entry): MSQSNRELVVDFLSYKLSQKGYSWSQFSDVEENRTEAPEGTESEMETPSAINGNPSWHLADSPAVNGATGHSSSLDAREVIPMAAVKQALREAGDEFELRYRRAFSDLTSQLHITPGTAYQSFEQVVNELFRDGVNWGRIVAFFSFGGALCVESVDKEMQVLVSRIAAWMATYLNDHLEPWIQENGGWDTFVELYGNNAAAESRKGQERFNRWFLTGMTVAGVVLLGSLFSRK
# In short: as §1
# Sequence of Bcl-2 (P10415 whole entry): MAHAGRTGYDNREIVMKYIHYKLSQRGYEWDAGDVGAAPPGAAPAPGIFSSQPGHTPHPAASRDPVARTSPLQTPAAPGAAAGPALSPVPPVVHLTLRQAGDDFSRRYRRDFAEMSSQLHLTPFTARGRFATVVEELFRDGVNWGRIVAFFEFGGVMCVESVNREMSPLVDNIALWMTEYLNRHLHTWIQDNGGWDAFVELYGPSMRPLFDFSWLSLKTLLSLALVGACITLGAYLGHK
SMILES,Ki [1],Bcl-XL binding affinity Ki [2]
CC(O)C1C(CO)ON(Cc2cccc(CN(C)CC(=O)N(C)C)c2)C1C(=O)NC1CC2CC(C1C)C2(C)C (stereo not shown) [Compound 446],< 800 nM,♯
C[C@@H]1[C@@H](NC(=O)[C@@H]2[C@H]([C@H](C)O)[C@H](CO)ON2Cc2cccc(-c3cccc(C(=O)NCCN(CCO)CCO)c3)c2)C[C@H]2C[C@@H]1C2(C)C [Compound 131],< 800 nM,♯
C[C@@H]1[C@@H](NC(=O)[C@@H]2[C@H]([C@H](C)O)[C@H](CO)ON2Cc2cccc(-c3cccc(C(=O)N[C@@H]4CCN(C)C4)c3)c2)C[C@H]2C[C@@H]1C2(C)C [Compound 137],< 800 nM,♯
COc1c(CN2O[C@@H](CO)[C@@H]([C@H](C)O)[C@H]2C(=O)N[C@H]2C[C@H]3C[C@@H]([C@@H]2C)C3(C)C)cccc1-c1cccc(C(=O)NCCN(C)C)c1 [Compound 165],< 800 nM,♯
C[C@@H]1[C@@H](NC(=O)[C@@H]2[C@H]([C@H](C)O)[C@H](CO)ON2Cc2cccc(-c3cccc(C(=O)NCCN4CCCC4)c3)c2)C[C@H]2C[C@@H]1C2(C)C [Compound 215],< 800 nM,♯
C[C@@H]1[C@@H](NC(=O)[C@@H]2[C@H]([C@H](C)O)[C@H](CO)ON2Cc2cccc(-c3cccc(C(=O)NCCN4CCCCC4)c3)c2)C[C@H]2C[C@@H]1C2(C)C [Compound 105],< 800 nM,♯
C[C@@H]1C(NC(=O)[C@@H]2[C@H]([C@H](C)O)[C@H](CO)ON2Cc2cccc(-c3ccc(NC(=O)N(C)CCCN(C)C)cc3)c2)C[C@@H]2CC1C2(C)C (stereo partly shown) [Compound 282],< 800 nM,♯♯
C[C@@H]1[C@@H](NC(=O)[C@@H]2[C@H]([C@H](C)O)[C@H](CO)ON2Cc2cccc(-c3cccc(S(C)(=O)=O)c3)c2)C[C@H]2C[C@@H]1C2(C)C [Compound 200],< 800 nM,♯
C[C@@H]1[C@@H](NC(=O)[C@@H]2[C@H]([C@H](C)O)[C@H](CO)ON2Cc2cccc(-c3cccc(C(=O)NCCCNC(=O)OC(C)(C)C)c3)c2)C[C@H]2C[C@@H]1C2(C)C [Compound 154],< 800 nM,♯♯

# The next lines start with the values.
Ki [1],Bcl-XL binding affinity Ki [2],SMILES
800 to 6000 nM,♯,CC(O)C1C(CO)ON(Cc2cccc(CN3CCN(C(=O)OCc4ccccc4)CC3)c2)C1C(=O)NC1CC2CC(C1C)C2(C)C (stereo not shown) [Compound 458]
6000 to 50000 nM,♯,CC(C)C[C@@H](CN(C)C)N(Cc1ccccc1)Cc1cccc(CN2O[C@@H](CO)[C@@H]([C@H](C)O)[C@H]2C(=O)NCCCn2ccnc2)c1 [Compound 529]
< 800 nM,♯,CCCC(CN(C)C)N(Cc1cccc(CN2OC(CO)C(C(C)O)C2C(=O)NC2CC3CC(C2C)C3(C)C)c1)Cc1ccccc1Cl (stereo not shown) [Compound 438]
800 to 6000 nM,♯,C[C@H](NC(=O)[C@@H]1[C@H]([C@H](C)O)[C@H](CO)ON1Cc1cccc(CN(CCN(C)C)Cc2ccccc2)c1)c1ccc2ccccc2c1 [Compound 521]
800 to 6000 nM,♯,CC(C)C[C@@H](CN(C)C)N(Cc1ccccc1)Cc1cccc(CN2O[C@@H](CO)[C@@H]([C@H](C)O)[C@H]2C(=O)NCCCN(C)c2ccccc2)c1 [Compound 531]
6000 to 50000 nM,♯,C[C@@H](O)[C@H]1[C@@H](CO)ON(Cc2cccc(C#CC(C)(O)c3ccccc3)c2)[C@H]1C(=O)NCC1CCCCC1 (stereo partly shown) [Compound 37]
< 800 nM,♯,CC(O)C1C(CO)ON(Cc2cccc(C(=O)NC(CN(C)C)c3ccccc3)c2)C1C(=O)NC1CC2CC(C1C)C2(C)C (stereo not shown) [Compound 506]
6000 to 50000 nM,♯♯,C[C@@H](O)[C@@H]1C(C(=O)NCCCN(C)c2ccc(Cl)cc2)N(Cc2cccc(C#CCNC(=O)c3ccccc3)c2)O[C@@H]1CO (stereo partly shown) [Compound 62]
